Test systems include 786-0; A498; A549; BT-549; EKVX; HCT-116; HT-29; IGROV-1; MOLT-4; NCI-H522; NCI/ADR-RES; OVCAR-3; OVCAR-4; PC-3; RPMI-8226; SK-MEL-5; SNB-19; SNB-75; TK-10; UACC-257.
Assay in all cases: NCI-60 cell line screen, 48 h

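These data come from cells grown in 96-well plates and exposed to compound for 48 hours at five concentrations. Abbreviation: GI50, concentration required for 50% inhibition of growth.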 Calls of active or inactive are those of the source. Rule as the data show it: active = GI50 up to about 1.1 µM and inactive = higher.

With `CN(C)CCCc1c2ccccc2nc2ccc(Cl)cc12`, the GI50 was 11.7 µM (inactive) with 786-0; 19.2 µM (inactive) in the assay on A498; 13.9 µM (inactive) in the assay on A549; 18.6 µM (inactive) in the assay on BT-549; 17 µM (inactive) in the assay on EKVX; 10.9 µM (inactive) with HCT-116. Further, the GI50 in the assay with HT-29 was 13.2 µM (inactive); in the assay with IGROV-1, 16.4 µM (inactive); in the assay on MOLT-4 it was 17.9 µM (inactive); with NCI-H522, 14.2 µM (inactive); with NCI/ADR-RES it was 21.9 µM (inactive); in the assay on OVCAR-3 it was 24.8 µM (inactive). Moreover, the GI50 in the assay on OVCAR-4 was 18.6 µM (inactive); in the assay on PC-3, 16.8 µM (inactive); in the assay on RPMI-8226 it was 21.3 µM (inactive); in the assay with SK-MEL-5, 14.4 µM (inactive); in the assay with SNB-19, 12 µM (inactive); in the assay with SNB-75, 15.5 µM (inactive). Moreover, the results for the GI50 with TK-10 and with UACC-257 were 13.9 µM (inactive) and 13.3 µM (inactive), respectively.

As to `O=[N+]([O-])c1cccc2nc3ccccc3c(NCCCn3ccnc3[N+](=O)[O-])c12`, the GI50 is 0.000175 µM (active) with 786-0; 0.000227 µM (active) with A498; 0.000122 µM (active) in the assay with A549; < 0.0001 µM (active) in the assay on BT-549; 0.000298 µM (active) in the assay on EKVX; < 0.0001 µM (active) with HCT-116. The GI50 is < 0.0001 µM (active) in the assay on HT-29; 0.00389 µM (active) with IGROV-1; 0.000336 µM (active) in the assay with MOLT-4; 0.00046 µM (active) in the assay with NCI-H522; 0.0238 µM (active) with NCI/ADR-RES; 0.00309 µM (active) in the assay on OVCAR-3. The GI50 is 0.0104 µM (active) in the assay on OVCAR-4; 0.000598 µM (active) with PC-3; < 0.0001 µM (active) in the assay with RPMI-8226; < 0.0001 µM (active) with SK-MEL-5; 0.000366 µM (active) in the assay with SNB-19; 0.0137 µM (active) in the assay with SNB-75. The results for the GI50 with TK-10 and in the assay on UACC-257 were 0.00367 µM (active) and 0.0039 µM (active), respectively.

For `O=C(Nc1ccc(-c2cn3ccccc3n2)cc1)c1cc(Br)ccc1O`, the GI50 in the assay on 786-0, with A498, in the assay on A549, in the assay with BT-549, in the assay with EKVX and with HCT-116 was > 100 µM (inactive) throughout. The GI50 with HT-29, in the assay with IGROV-1, in the assay on MOLT-4, with NCI-H522, in the assay with NCI/ADR-RES and in the assay on OVCAR-3 was > 100 µM (inactive) in each case. Also, the GI50 with OVCAR-4, with PC-3, in the assay on RPMI-8226, in the assay on SK-MEL-5, in the assay on SNB-19 and in the assay on SNB-75 was > 100 µM (inactive) each time. The GI50 with TK-10 and in the assay with UACC-257 was > 100 µM (inactive) each time.

Take `CCOC(=O)c1ccc(-c2cccs2)n1C`: the GI50 in the assay with 786-0 is > 100 µM (inactive); with A498, > 100 µM (inactive); with A549, > 100 µM (inactive); in the assay with BT-549, > 83 µM (inactive); in the assay with EKVX, 48.5 µM (inactive); with HCT-116, > 95.1 µM (inactive). Further, the GI50 is 47.2 µM (inactive) in the assay on HT-29; > 80.7 µM (inactive) in the assay with IGROV-1; 39.4 µM (inactive) in the assay with MOLT-4; 51.6 µM (inactive) in the assay with NCI-H522; > 87.5 µM (inactive) in the assay on NCI/ADR-RES; > 100 µM (inactive) with OVCAR-3. For the same compound, the GI50 in the assay on OVCAR-4 is 79.8 µM (inactive); in the assay with PC-3 it was > 100 µM (inactive); in the assay with RPMI-8226, 84.5 µM (inactive); with SK-MEL-5 it was 33.7 µM (inactive); with SNB-19 it was > 100 µM (inactive); in the assay with SNB-75, > 100 µM (inactive). The GI50 in the assay with TK-10 is > 100 µM (inactive); with UACC-257, > 79.1 µM (inactive).

On to `CCOC(=O)N(Cc1cccs1)c1cc(OC)c(OC)c(OC)c1`, for which the GI50 is > 100 µM (inactive) in the assay with 786-0; > 100 µM (inactive) in the assay with A498; 94.6 µM (inactive) in the assay on A549; 40.6 µM (inactive) with BT-549; > 100 µM (inactive) with EKVX; > 100 µM (inactive) with HCT-116. Further, the GI50 is 70.1 µM (inactive) with HT-29; 17 µM (inactive) in the assay on IGROV-1; 13.6 µM (inactive) in the assay on MOLT-4; 32.6 µM (inactive) with NCI-H522; 3.01 µM (inactive) with NCI/ADR-RES; 53.8 µM (inactive) in the assay on OVCAR-3. Moreover, the GI50 with OVCAR-4 was 32.1 µM (inactive); in the assay with PC-3 it was 33.1 µM (inactive); with RPMI-8226 it was 25.8 µM (inactive); in the assay with SK-MEL-5, 41.7 µM (inactive); in the assay on SNB-19 it was > 100 µM (inactive); with SNB-75, 49.4 µM (inactive). The GI50 with TK-10 and with UACC-257 was > 100 µM (inactive) each time.

Consider `S=C1Cc2c(-c3ccc(Cl)cc3)cc(-c3ccccc3)nc2-c2ccccc2N1`, for which the GI50 with 786-0 was 5.97 µM (inactive); in the assay with A498 it was 14.8 µM (inactive); with A549 it was 8.73 µM (inactive); with BT-549, 16.6 µM (inactive); in the assay with EKVX it was 15.6 µM (inactive); with HCT-116, 11 µM (inactive). The GI50 was 5.47 µM (inactive) with HT-29; 3.83 µM (inactive) in the assay with IGROV-1; 28.7 µM (inactive) with MOLT-4; 15.7 µM (inactive) in the assay with NCI-H522; 12.7 µM (inactive) in the assay with NCI/ADR-RES; 13 µM (inactive) in the assay on OVCAR-3. Besides, the GI50 was 3.08 µM (inactive) with OVCAR-4; 15.2 µM (inactive) in the assay on PC-3; 37.3 µM (inactive) with RPMI-8226; 16 µM (inactive) with SK-MEL-5; 4.5 µM (inactive) with SNB-19; 3.76 µM (inactive) in the assay with SNB-75. Besides, the GI50 is 12.3 µM (inactive) in the assay on TK-10 and 14.1 µM (inactive) in the assay on UACC-257.

For `CC(C)C(Cl)CC/C(CBr)=C(\Cl)CCl` (stereo not given), the GI50 with 786-0 is 2.22 µM (inactive); in the assay with A498, 19.2 µM (inactive); in the assay with A549, 17.8 µM (inactive); with BT-549 it was 2.05 µM (inactive); in the assay on EKVX it was 19.6 µM (inactive); with HCT-116 it was 2.86 µM (inactive). The GI50 with HT-29 was 4.75 µM (inactive); in the assay with IGROV-1 it was 1.77 µM (inactive); in the assay on MOLT-4 it was 1.73 µM (inactive); with NCI-H522, 0.794 µM (active); in the assay on NCI/ADR-RES, 10.9 µM (inactive); in the assay on OVCAR-3, 4.72 µM (inactive). Further, the GI50 in the assay on OVCAR-4 was 2.27 µM (inactive); in the assay on PC-3, 10.7 µM (inactive); in the assay with RPMI-8226, 2.27 µM (inactive); with SK-MEL-5, 2.02 µM (inactive); with SNB-19, 14.6 µM (inactive); with SNB-75, 2.01 µM (inactive). Also, the results for the GI50 in the assay with TK-10 and with UACC-257 were 14.5 µM (inactive) and 2.79 µM (inactive), respectively.

`CC(=O)/C=C1\Nc2ccc([N+](=O)[O-])cc2N\C1=C/C(C)=O`: the GI50 with 786-0 is 58.1 µM (inactive); with A498, 25.4 µM (inactive); with A549, 38.3 µM (inactive); in the assay with BT-549 it was 31.9 µM (inactive); in the assay with EKVX it was 42.4 µM (inactive); in the assay with HCT-116, 28.8 µM (inactive). The GI50 in the assay on HT-29 is 54 µM (inactive); in the assay on IGROV-1 it was 39.5 µM (inactive); in the assay with MOLT-4, 21 µM (inactive); in the assay with NCI-H522, 16 µM (inactive); in the assay on NCI/ADR-RES, 30 µM (inactive); in the assay on OVCAR-3 it was 31.1 µM (inactive). Further, the GI50 is 44.7 µM (inactive) with OVCAR-4; 44.3 µM (inactive) in the assay on PC-3; 20.6 µM (inactive) in the assay on RPMI-8226; 24.7 µM (inactive) with SK-MEL-5; 42.2 µM (inactive) in the assay with SNB-19; > 100 µM (inactive) in the assay on SNB-75. Besides, the values for the GI50 in the assay with TK-10 and in the assay with UACC-257 were 65.5 µM (inactive) and 21.9 µM (inactive), respectively.

Take `COc1cc(-c2cn(S(=O)(=O)c3ccc(C)cc3)c3ccccc23)nc(-c2cn(S(=O)(=O)c3ccc(C)cc3)c3ccccc23)n1`: the GI50 is 1.35 µM (inactive) in the assay on 786-0; 1.32 µM (inactive) in the assay on A498; 0.473 µM (active) with A549; 4.85 µM (inactive) in the assay on BT-549; 0.783 µM (active) in the assay with EKVX; 0.385 µM (active) with HCT-116. Besides, the GI50 in the assay with HT-29 was 0.573 µM (active); in the assay on IGROV-1, 0.728 µM (active); in the assay on MOLT-4, 0.69 µM (active); in the assay on NCI-H522, 0.239 µM (active); in the assay with NCI/ADR-RES it was 0.746 µM (active); in the assay on OVCAR-3, 0.586 µM (active). The GI50 in the assay on OVCAR-4 was 1.99 µM (inactive); with PC-3, 0.773 µM (active); in the assay on RPMI-8226, 0.375 µM (active); in the assay on SK-MEL-5 it was 0.566 µM (active); in the assay with SNB-19 it was 0.54 µM (active); with SNB-75 it was 4.42 µM (inactive). The GI50 is 8.22 µM (inactive) in the assay with TK-10 and 52.5 µM (inactive) with UACC-257.

On to `C=C1CC(Cn2cc(Br)c(=O)[nH]c2=O)(c2ccc(-c3ccccc3)cc2)OC1=O` (stereo not given), for which the GI50 is 1.02 µM (active) in the assay on 786-0; 0.776 µM (active) in the assay with A498; 5.31 µM (inactive) in the assay on A549; 1.66 µM (inactive) in the assay with BT-549; 2.16 µM (inactive) in the assay with EKVX; 0.301 µM (active) in the assay with HCT-116. Besides, the GI50 in the assay with HT-29 was 0.469 µM (active); in the assay on IGROV-1 it was 1.4 µM (inactive); in the assay with MOLT-4 it was 0.552 µM (active); with NCI-H522, 0.655 µM (active); in the assay on NCI/ADR-RES, 1.41 µM (inactive); in the assay on OVCAR-3, 1.63 µM (inactive). The GI50 with OVCAR-4 is 2.13 µM (inactive); in the assay with PC-3 it was 1.55 µM (inactive); in the assay on RPMI-8226, 0.128 µM (active); in the assay on SK-MEL-5 it was 1.27 µM (inactive); in the assay with SNB-19, 12.6 µM (inactive); in the assay with SNB-75, 4.49 µM (inactive). Moreover, the results for the GI50 with TK-10 and with UACC-257 were 0.432 µM (active) and 0.836 µM (active), respectively.

Values taken from ChEMBL document CHEMBL1201862, “PubChem BioAssay data set” (2004).
